Tests used:
Type in all cases: in vivo
[1] = test system: barnyardgrass (Echinochloa crusgalli); assay: Test B flooded paddy test, visual plant response rating 0-100; conditions: 250 g ai/ha, Flood, applied to paddy water, evaluated after 13 days
Summary of the method: (§1)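 Visual evaluation after 13 days. Water-applied treatment, 3 cm flood depth held constant, plants at 2-leaf stage at treatment.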

[2] = test system: sedge, umbrella (small-flower umbrella sedge, Cyperus difformis); assay: as above; conditions: 250 g ai/ha, Flood, applied to paddy water, evaluated after 13 days
Summary of the method: as §1

rice (Oryza sativa) = assay: as above; conditions: 250 g ai/ha, Flood, applied to paddy water, evaluated after 13 days
Summary of the method: as §1

[3] = test system: ducksalad (Heteranthera limosa); assay: as above; conditions: 250 g ai/ha, Flood, applied to paddy water, evaluated after 13 days
Summary of the method: as §1

[4] = test system: blackgrass (Alopecurus myosuroides); assay: Test A postemergence application, visual injury rating 0-100
Summary of the method: (§2)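 Seeds sown in loam-sand blend got a preemergence directed soil spray, or emerged plants (2-10 cm, one- to two-leaf) got a postemergence spray, of compound in non-phytotoxic solvent with surfactant. After 10 days in greenhouse, injury rated visually versus untreated controls on a 0 (no effect) to 100 (complete control) scale.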

[5] = test system: wheat (Triticum aestivum); assay: as above
Summary of the method: as §2

[6] = test system: palmer (palmer amaranth, palmer pigweed, Amaranthus palmeri); assay: as above
Summary of the method: as §2

kochia (Bassia scoparia) [7] = assay: as above
Summary of the method: as §2

[8] = test system: barnyardgrass (Echinochloa crus-galli); assay: as above
Summary of the method: as §2

[9] = test system: ragweed (common ragweed, Ambrosia artemisiifolia); assay: as above
Summary of the method: as §2

[10] = test system: green foxtail (Setaria viridis); assay: as above
Summary of the method: as §2

[11] = test system: ryegrass, Italian (italian ryegrass, Lolium multiflorum); assay: as above
Summary of the method: as §2

[12] = test system: horseweed (Erigeron canadensis); assay: as above
Summary of the method: as §2

corn (Zea mays) [13] = assay: as above
Summary of the method: as §2

[14] = test system: oat, wild (wild oat, Avena fatua); assay: as above
Summary of the method: as §2

soybean (Glycine max) [15] = assay: as above
Summary of the method: as §2

[16] = test system: blackgrass (Alopecurus myosuroides); assay: Test A preemergence soil spray, visual injury rating 0-100; conditions: 10 days
Summary of the method: as §2

[17] = test system: wheat (Triticum aestivum); assay: as above; conditions: 10 days
Summary of the method: as §2

[18] = test system: palmer (palmer amaranth, palmer pigweed, Amaranthus palmeri); assay: as above; conditions: 10 days
Summary of the method: as §2

kochia (Bassia scoparia) [19] = assay: as above; conditions: 10 days
Summary of the method: as §2

[20] = test system: barnyardgrass (Echinochloa crus-galli); assay: as above; conditions: 10 days
Summary of the method: as §2

[21] = test system: ragweed (common ragweed, Ambrosia artemisiifolia); assay: as above; conditions: 10 days
Summary of the method: as §2

[22] = test system: green foxtail (Setaria viridis); assay: as above; conditions: 10 days
Summary of the method: as §2

[23] = test system: ryegrass, Italian (italian ryegrass, Lolium multiflorum); assay: as above; conditions: 10 days
Summary of the method: as §2

corn (Zea mays) [24] = assay: as above; conditions: 10 days
Summary of the method: as §2

[25] = test system: oat, wild (wild oat, Avena fatua); assay: as above; conditions: 10 days
Summary of the method: as §2

soybean (Glycine max) [26] = assay: as above; conditions: 10 days
Summary of the method: as §2

[27] = 62 g ai/ha, postemergence, 10 days, 0 = no effect, 100 = complete control
[28] = Postemergence, 16 g ai/ha, greenhouse 10 days, 0 no effect, 100 complete control
[29] = 62 g ai/ha, 0 = no effect, 100 = complete control

For `CC1(C(=O)NC2C=CC(C(=O)NO)C2)CN(c2cc(F)cc(F)c2)C(=O)O1` (centres unmarked) [Compound 137], the “Plant response rating, Barnyardgrass (0 to 100 scale, 0 is no effect and 100 is complete control)” value [1] was 0, the “Plant response rating, Sedge, Umbrella (0 to 100 scale, 0 is no effect and 100 is complete control)” value [2] was 0 and the “Plant response rating, Rice (0 to 100 scale, 0 is no effect and 100 is complete control)” value (rice (Oryza sativa)) was 0. For the same molecule, the “Plant response rating, Ducksalad (0 to 100 scale, 0 is no effect and 100 is complete control)” value [3] was 0, the “Blackgrass plant response rating (0-100)” value [4, 27] was 60 and the “Blackgrass plant response rating (0 to 100 scale)” value [4, 28] was 0. For the same molecule, the “Wheat plant response rating (0-100)” value [5, 27] was 70, the “Wheat plant response rating (0 to 100 scale)” value [5, 28] was 0 and the “Pigweed, Palmer plant response rating (0-100)” value [6, 27] was 30. For the same molecule, the “Pigweed, Palmer plant response rating (0 to 100 scale)” value [6, 28] was 0, the “Kochia plant response rating (0-100)” value (kochia (Bassia scoparia) [7]; [27]) was 50 and the “Kochia plant response rating (0 to 100 scale)” value (kochia (Bassia scoparia) [7]; [28]) was 0. For the same molecule, the “Barnyardgrass plant response rating (0-100)” value [8, 27] was 70, the “Barnyardgrass plant response rating (0 to 100 scale)” value [8, 28] was 0 and the “Ragweed plant response rating (0-100)” value [9, 27] was 0. The “Ragweed plant response rating (0 to 100 scale)” value [9, 28] was 0, the “Foxtail, Green plant response rating (0-100)” value [10, 27] was 10 and the “Foxtail, Green plant response rating (0 to 100 scale)” value [10, 28] was 0. For the same molecule, the “Ryegrass, Italian plant response rating (0-100)” value [11, 27] was 30, the “Ryegrass, Italian plant response rating (0 to 100 scale)” value [11, 28] was 0 and the “Horseweed plant response rating (0-100)” value [12, 27] was 50. For the same molecule, the “Horseweed plant response rating (0 to 100 scale)” value [12, 28] was 0, the “Corn plant response rating (0-100)” value (corn (Zea mays) [13]; [27]) was 50 and the “Corn plant response rating (0 to 100 scale)” value (corn (Zea mays) [13]; [28]) was 10. For the same molecule, the “Oat, Wild plant response rating (0-100)” value [14, 27] was 30, the “Oat, Wild plant response rating (0 to 100 scale)” value [14, 28] was 0 and the “Soybean plant response rating (0-100)” value (soybean (Glycine max) [15]; [27]) was 60. The “Soybean plant response rating (0 to 100 scale)” value (soybean (Glycine max) [15]; [28]) was 0, the “Blackgrass plant response rating” value ([16]; 16 g ai/ha, 0 to 100 scale) was 0 and the “Blackgrass plant response rating (0-100)” value [16, 29] was 50. The “Wheat plant response rating” value ([17]; 16 g ai/ha, 0 to 100 scale) was 20, the “Wheat plant response rating (0-100)” value [17, 29] was 90 and the “Pigweed, Palmer plant response rating” value ([18]; 16 g ai/ha, 0 to 100 scale) was 20. For the same molecule, the “Pigweed, Palmer plant response rating (0-100)” value [18, 29] was 70, the “Kochia plant response rating” value (kochia (Bassia scoparia) [19]; 16 g ai/ha, 0 to 100 scale) was 0 and the “Kochia plant response rating (0-100)” value (kochia (Bassia scoparia) [19]; [29]) was 90. For the same molecule, the “Barnyardgrass plant response rating” value ([20]; 16 g ai/ha, 0 to 100 scale) was 0, the “Barnyardgrass plant response rating (0-100)” value [20, 29] was 60 and the “Ragweed plant response rating” value ([21]; 16 g ai/ha, 0 to 100 scale) was 0. For the same molecule, the “Ragweed plant response rating (0-100)” value [21, 29] was 0, the “Foxtail, Green plant response rating” value ([22]; 16 g ai/ha, 0 to 100 scale) was 0 and the “Foxtail, Green plant response rating (0-100)” value [22, 29] was 30. For the same molecule, the “Ryegrass, Italian plant response rating” value ([23]; 16 g ai/ha, 0 to 100 scale) was 30, the “Ryegrass, Italian plant response rating (0-100)” value [23, 29] was 60 and the “Corn plant response rating” value (corn (Zea mays) [24]; 16 g ai/ha, 0 to 100 scale) was 0. The “Corn plant response rating (0-100)” value (corn (Zea mays) [24]; [29]) was 10, the “Oat, Wild plant response rating” value ([25]; 16 g ai/ha, 0 to 100 scale) was 0 and the “Oat, Wild plant response rating (0-100)” value [25, 29] was 30. For the same molecule, the “Soybean plant response rating” value (soybean (Glycine max) [26]; 16 g ai/ha, 0 to 100 scale) was 0 and the “Soybean plant response rating (0-100)” value (soybean (Glycine max) [26]; [29]) was 50.
